Test results reported in US6228861A, “Dihydropyrimidines and uses thereof” (Synaptic Pharmaceutical Corporation, priority 1998, dated 2001).
Like-named read-outs stand apart in the source and are kept apart here.

Legend:
[1] = literature, BPH patients; cited from earlier work
[2] = cited from earlier work
[3] = target: T1, α1D Human Adrenergic Receptor (Homo sapiens, UniProt P25100); experiment: [3H]prazosin radioligand binding, cloned human α1D receptor; conditions: LM(tk-) membranes, [3H]prazosin 0.5 nM, 37° C., 20 min
T1 construct: The entire coding region of α1D (1719 bp); expressed in transfected cells; membranes
T1 sequence (P25100 1-572): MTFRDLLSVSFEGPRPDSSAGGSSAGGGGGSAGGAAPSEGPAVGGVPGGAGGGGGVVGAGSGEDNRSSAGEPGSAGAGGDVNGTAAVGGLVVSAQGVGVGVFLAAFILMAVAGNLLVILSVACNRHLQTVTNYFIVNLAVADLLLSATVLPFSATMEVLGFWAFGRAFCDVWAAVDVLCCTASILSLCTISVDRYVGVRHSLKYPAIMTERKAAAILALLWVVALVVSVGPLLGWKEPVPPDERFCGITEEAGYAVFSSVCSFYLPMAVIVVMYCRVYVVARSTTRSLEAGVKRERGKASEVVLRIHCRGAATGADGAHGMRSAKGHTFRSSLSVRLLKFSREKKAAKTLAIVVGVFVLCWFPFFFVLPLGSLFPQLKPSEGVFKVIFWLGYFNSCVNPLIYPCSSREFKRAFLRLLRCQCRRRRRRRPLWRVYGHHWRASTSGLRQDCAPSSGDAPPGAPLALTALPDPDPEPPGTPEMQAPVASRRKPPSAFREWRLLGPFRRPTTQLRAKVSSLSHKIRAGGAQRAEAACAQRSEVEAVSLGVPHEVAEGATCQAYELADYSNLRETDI
Description: (§1) Binding affinities were measured for selected compounds of the invention at six cloned human alpha-1 and alpha-2 receptor subtypes, as well as at the L-type calcium channel. The protocols for these experiments are given below.
(§2) The activity of compounds at the different human receptors was determined in vitro using cultured cell lines that selectively express the receptor of interest. These cell lines were prepared by transfecting the cloned cDNA or cloned genomic DNA or constructs containing both genomic DNA and cDNA encoding the human α-adrenergic receptors as follows:
The entire coding region of α1D (1719 bp), including 150 base pairs of 5' untranslated sequence t5' UT) and 300 bp of 3' untranslated sequence (3' UT), was cloned into the BamHI and ClaI sites of the polylinker-modified eukaryotic expression vector pCEXV-3, called EXJ.HR. […]
(§3) Transfected cells from culture flasks were scraped into 5 ml of 5 mM Tris-HCl, 5 mM EDTA, pH 7.5, and lysed by sonication. […] Nonspecific binding was determined in the presence of 10 μM phentolamine. […] Inhibition experiments, routinely consisting of 7 concentrations of the tested compounds, were analyzed using a non-linear regression curve-fitting computer program to obtain Ki values.

[4] = target: T2, α1B Human Adrenergic Receptor (Homo sapiens, UniProt P35368); experiment: [3H]prazosin radioligand binding, cloned human α1B receptor; conditions: LM(tk-) membranes, [3H]prazosin 0.5 nM, 37° C., 20 min
T2 construct: The entire coding region of α1B (1563 bp); expressed in transfected cells; membranes
T2 sequence (P35368 1-520): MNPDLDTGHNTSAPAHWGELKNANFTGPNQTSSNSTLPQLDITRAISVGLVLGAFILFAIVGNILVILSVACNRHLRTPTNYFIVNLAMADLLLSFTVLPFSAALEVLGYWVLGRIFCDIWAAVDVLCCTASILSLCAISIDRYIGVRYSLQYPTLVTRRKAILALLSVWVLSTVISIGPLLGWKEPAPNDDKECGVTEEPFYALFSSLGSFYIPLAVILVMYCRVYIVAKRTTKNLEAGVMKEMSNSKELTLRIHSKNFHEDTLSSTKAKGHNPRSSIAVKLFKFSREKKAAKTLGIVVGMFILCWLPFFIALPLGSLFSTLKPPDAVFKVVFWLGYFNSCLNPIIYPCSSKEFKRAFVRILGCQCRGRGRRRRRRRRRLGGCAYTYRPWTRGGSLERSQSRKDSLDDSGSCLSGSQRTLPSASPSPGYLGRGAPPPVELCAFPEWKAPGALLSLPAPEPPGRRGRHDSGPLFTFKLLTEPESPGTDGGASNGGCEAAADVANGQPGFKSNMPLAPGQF
Description: as §1, §2
(§4) The construct involved the ligation of partial overlapping human lymphocyte genomic and hippocampal cDNA clones: 5' sequence were contained on a 1.2 kb SmaI-XhoI genomic fragment (the vector-derived -BamHI site was used for subcloning instead of the internal insert-derived SmaI site) and 3' sequences were contained on an 1.3 kb XhoI-ClaI cDNA fragment (the ClaI site was from the vector polylinker). […]
as §3

[5] = target: T3, α1A Human Adrenergic Receptor (Homo sapiens, UniProt P35348); experiment: [3H]prazosin radioligand binding, cloned human α1A receptor; conditions: LM(tk-) membranes, [3H]prazosin 0.5 nM, 37° C., 20 min
T3 construct: The entire coding region of α1A (1401 bp); expressed in transfected cells; membranes
T3 sequence (P35348 1-466): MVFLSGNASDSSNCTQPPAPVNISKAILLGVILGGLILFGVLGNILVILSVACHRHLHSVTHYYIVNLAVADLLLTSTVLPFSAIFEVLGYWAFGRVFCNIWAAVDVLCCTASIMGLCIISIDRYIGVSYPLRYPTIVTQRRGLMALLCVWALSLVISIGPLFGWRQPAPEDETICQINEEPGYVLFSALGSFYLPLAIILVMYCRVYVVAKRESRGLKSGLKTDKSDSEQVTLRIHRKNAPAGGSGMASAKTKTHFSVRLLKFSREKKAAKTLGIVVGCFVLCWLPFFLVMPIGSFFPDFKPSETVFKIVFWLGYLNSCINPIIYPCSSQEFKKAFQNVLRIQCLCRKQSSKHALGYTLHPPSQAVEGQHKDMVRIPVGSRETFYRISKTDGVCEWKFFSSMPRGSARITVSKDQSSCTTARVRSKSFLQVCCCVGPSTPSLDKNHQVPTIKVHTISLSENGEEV
Description: as §1, §2, §4
Transfected cells from culture flasks were scraped into 5 ml of 5 mM Tris-HCl, 5 mM EDTA, pH 7.5, and lysed by sonication. […] Nonspecific binding was determined in the presence of 10 μM phentolamine. […]

Compound: COc1cc2nc(N3CCN(C(=O)C4CCCO4)CC3)nc(N)c2cc1OC (stereo not shown) [terazosin]
- usefulness in BPH [1]: useful for treating BPH
- side effects ([2]; literature): untoward side effects

Compound: CC(COc1ccccc1)N(CCCl)Cc1ccccc1 (stereo not shown) [phenoxybenzamine]
- usefulness in BPH [1]: useful in relieving the symptoms of BPH
- side effects ([2]; literature): significant side effects such as dizziness and asthenia

Compound: Clc1cccc(Cl)c1N=C1NCCN1 [clonidine]
- side effects ([2]; literature): dry mouth and sedation

Compound: COCC1=C(C(C)=O)C(c2cc(F)c(F)c(F)c2)N(C(=O)NCCN[C@H]2CC[C@](C#N)(c3ccccc3)CC2)C(=O)N1.Cl (stereo partly drawn) [Example 2, cis-6-(3,4,5-Trifluorophenyl)-1-{N-[2-(4-cyano-4 phenyl-cyclohexylamino)ethyl]}-carboxamido-5-acetyl-4-methoxymethyl-2-oxo-1,2,3,6 - tetrahydropyrimidine hydrochloride]
- hα1D pKi [3]: 7.05
- hα1B pKi [4]: 7.76
- hα1A pKi [5]: 9.51

Compound: COc1cc2nc(N3CCN(C(=O)c4ccco4)CC3)nc(N)c2cc1OC [prazosin]
- usefulness in BPH [1]: useful for treating BPH
- side effects ([2]; in vivo): untoward side effects
